Measured values taken from the supplement of paper PMC10307832.

Experiments:
Assay in all cases: relative viability (nuclei count vs DMSO), 5 days (fraction); higher = more cells survive
[1] = system: A-427
Outline: (§1)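 Lung cancer cell lines in 1536-well plates got either a single drug or a fixed anchor-drug dose together with five library-drug doses (not always all listed) in √10 steps, by pin tool, on the day after seeding. Nuclei were counted after 5 days, and relative viability is the treated-to-vehicle ratio of nuclei counts. Values are medians of duplicate plates.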

[2] = system: COR-L 105
Outline: as §1

[3] = system: EKVX
Outline: as §1

[4] = system: EMC-BAC-2
Outline: as §1

[5] = system: H3255
Outline: as §1

[6] = system: HCC-366
Outline: as §1

[7] = system: LK-2
Outline: as §1

[8] = system: LOU-NH91
Outline: as §1

[9] = system: NCI-H1563
Outline: as §1

[10] = system: NCI-H1666
Outline: as §1

[11] = system: NCI-H1734
Outline: as §1

[12] = system: NCI-H1755
Outline: as §1

[13] = system: NCI-H1975
Outline: as §1

[14] = system: NCI-H2170
Outline: as §1

[15] = system: NCI-H23
Outline: as §1

[16] = system: NCI-H520
Outline: as §1

[17] = system: NCI-H596
Outline: as §1

[18] = system: PC-3 [JPC-3]
Outline: as §1

[19] = system: SK-MES-1
Outline: as §1

CC(=O)O[C@@]12CO[C@@H]1C[C@H](O)[C@@]1(C)C(=O)[C@H](O)C3=C(C)[C@@H](OC(=O)[C@H](O)[C@@H](NC(=O)OC(C)(C)C)c4ccccc4)C[C@@](O)([C@@H](OC(=O)c4ccccc4)[C@H]21)C3(C)C [Docetaxel] + CS(=O)(=O)CCNCc1ccc(-c2ccc3ncnc(Nc4ccc(OCc5cccc(F)c5)c(Cl)c4)c3c2)o1 [Lapatinib] (partner 2 µM)
relative viability ([1]; first compound 0.0002 µM): 0.947
relative viability ([1]; first compound 0.000632 µM): 1.02
relative viability ([1]; first compound 0.002 µM): 0.961
relative viability ([1]; first compound 0.006325 µM): 0.211
relative viability ([1]; first compound 0.02 µM): 0.162
relative viability ([2]; first compound 0.0002 µM): 0.369
relative viability ([2]; first compound 0.000632 µM): 0.277
relative viability ([2]; first compound 0.002 µM): 0.313
relative viability ([2]; first compound 0.006325 µM): 0.283
relative viability ([2]; first compound 0.02 µM): 0.268
relative viability ([3]; first compound 0.0002 µM): 0.212
relative viability ([3]; first compound 0.000632 µM): 0.173
relative viability ([3]; first compound 0.002 µM): 0.14
relative viability ([3]; first compound 0.006325 µM): 0.141
relative viability ([3]; first compound 0.02 µM): 0.119
relative viability ([4]; first compound 0.0002 µM): 0.735
relative viability ([4]; first compound 0.000632 µM): 0.613
relative viability ([4]; first compound 0.002 µM): 0.337
relative viability ([4]; first compound 0.006325 µM): 0.278
relative viability ([4]; first compound 0.02 µM): 0.209
relative viability ([5]; first compound 0.0002 µM): 0.227
relative viability ([5]; first compound 0.002 µM): 0.223
relative viability ([5]; first compound 0.006325 µM): 0.19
relative viability ([5]; first compound 0.02 µM): 0.175
relative viability ([6]; first compound 0.0002 µM): 0.938
relative viability ([6]; first compound 0.000632 µM): 0.054
relative viability ([6]; first compound 0.002 µM): 0.0282
relative viability ([6]; first compound 0.006325 µM): 0.0194
relative viability ([6]; first compound 0.02 µM): 0.011
relative viability ([7]; first compound 0.0002 µM): 0.843
relative viability ([7]; first compound 0.000632 µM): 0.662
relative viability ([7]; first compound 0.002 µM): 0.244
relative viability ([7]; first compound 0.006325 µM): 0.248
relative viability ([7]; first compound 0.02 µM): 0.148
relative viability ([8]; first compound 0.0002 µM): 0.715
relative viability ([8]; first compound 0.000632 µM): 0.589
relative viability ([8]; first compound 0.002 µM): 0.462
relative viability ([8]; first compound 0.006325 µM): 0.361
relative viability ([8]; first compound 0.02 µM): 0.351
relative viability ([9]; first compound 0.0002 µM): 0.969
relative viability ([9]; first compound 0.000632 µM): 1.01
relative viability ([9]; first compound 0.002 µM): 0.971
relative viability ([9]; first compound 0.006325 µM): 0.747
relative viability ([9]; first compound 0.02 µM): 0.581
relative viability ([10]; first compound 0.0002 µM): 0.462
relative viability ([10]; first compound 0.000632 µM): 0.461
relative viability ([10]; first compound 0.002 µM): 0.299
relative viability ([10]; first compound 0.006325 µM): 0.197
relative viability ([10]; first compound 0.02 µM): 0.198
relative viability ([11]; first compound 0.0002 µM): 0.986
relative viability ([11]; first compound 0.000632 µM): 0.549
relative viability ([11]; first compound 0.002 µM): 0.429
relative viability ([11]; first compound 0.006325 µM): 0.322
relative viability ([11]; first compound 0.02 µM): 0.221
relative viability ([12]; first compound 0.0002 µM): 0.99
relative viability ([12]; first compound 0.000632 µM): 0.756
relative viability ([12]; first compound 0.002 µM): 0.495
relative viability ([12]; first compound 0.006325 µM): 0.448
relative viability ([12]; first compound 0.02 µM): 0.258
relative viability ([13]; first compound 0.0002 µM): 0.884
relative viability ([13]; first compound 0.000632 µM): 0.449
relative viability ([13]; first compound 0.002 µM): 0.268
relative viability ([13]; first compound 0.006325 µM): 0.175
relative viability ([13]; first compound 0.02 µM): 0.142
relative viability ([14]; first compound 0.0002 µM): 0.279
relative viability ([14]; first compound 0.000632 µM): 0.265
relative viability ([14]; first compound 0.002 µM): 0.194
relative viability ([14]; first compound 0.006325 µM): 0.224
relative viability ([14]; first compound 0.02 µM): 0.184
relative viability ([15]; first compound 0.0002 µM): 0.963
relative viability ([15]; first compound 0.000632 µM): 0.725
relative viability ([15]; first compound 0.002 µM): 0.356
relative viability ([15]; first compound 0.006325 µM): 0.157
relative viability ([15]; first compound 0.02 µM): 0.123
relative viability ([16]; first compound 0.0002 µM): 0.856
relative viability ([16]; first compound 0.000632 µM): 0.684
relative viability ([16]; first compound 0.002 µM): 0.246
relative viability ([16]; first compound 0.006325 µM): 0.162
relative viability ([16]; first compound 0.02 µM): 0.12
relative viability ([17]; first compound 0.0002 µM): 0.995
relative viability ([17]; first compound 0.000632 µM): 0.957
relative viability ([17]; first compound 0.002 µM): 0.844
relative viability ([17]; first compound 0.006325 µM): 0.372
relative viability ([17]; first compound 0.02 µM): 0.35
relative viability ([18]; first compound 0.0002 µM): 0.44
relative viability ([18]; first compound 0.000632 µM): 0.476
relative viability ([18]; first compound 0.002 µM): 0.385
relative viability ([18]; first compound 0.006325 µM): 0.295
relative viability ([18]; first compound 0.02 µM): 0.197
relative viability ([19]; first compound 0.0002 µM): 0.437
relative viability ([19]; first compound 0.000632 µM): 0.633
relative viability ([19]; first compound 0.002 µM): 0.378
relative viability ([19]; first compound 0.02 µM): 0.159
